Data from patent publication US9249453B2, “Method for identifying a malodor inhibitor” (Kao Corporation, priority 2011, dated 2016).
Where two headings read alike, the source gives them in different places.

Legend:
Type in all cases: cell-based
[1] = target: T1, OR5K1 (Homo sapiens, UniProt Q8NHB7); test: Luciferase reporter assay: suppression of the skatole response of OR5K1 expressed in HEK293 cells; settings: for inhibition at 100 µM: read-out: Inhibition rate 5K1
T1 construct: expressed in transfected cells; host or cells: HEK293
T1 sequence (Q8NHB7 1-308): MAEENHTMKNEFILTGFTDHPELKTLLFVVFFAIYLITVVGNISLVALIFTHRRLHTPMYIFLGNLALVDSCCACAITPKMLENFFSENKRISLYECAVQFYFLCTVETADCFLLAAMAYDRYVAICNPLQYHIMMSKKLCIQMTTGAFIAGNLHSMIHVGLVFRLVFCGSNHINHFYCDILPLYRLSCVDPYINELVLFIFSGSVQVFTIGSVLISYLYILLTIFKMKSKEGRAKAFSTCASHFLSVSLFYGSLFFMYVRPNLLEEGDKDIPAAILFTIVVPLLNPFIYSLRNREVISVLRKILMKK
Experimental: (§1) A reaction solution having a composition shown in Table 1 was prepared on a clean bench, and left to stand for 15 minutes. The solution was dispensed to each well of a 96-well plate (BD). Subsequently, HEK293 cells (100 μL, 3×10^5 cells/cm^2) were seeded in each well and cultured for 24 hours in an incubator at 37° C. and under 5% CO2 conditions.
(§2) The olfactory receptor expressed in HEK293 cells activates adenylate cyclase with the aid of Gαs present in cells, to thereby increase intracellular cAMP level. In this study, odorant response was measured by a luciferase reporter gene assay which monitored the intracellular cAMP level as the luminescence value derived from a firefly luciferase gene (fluc2P-CRE-hygro). Also, a Renilla luciferase gene fused downstream of a CMV promoter (hRluc-CMV) was also transfected to HEK293 cells as an internal standard to correct errors in gene transfer efficiency and number of cells.
(§3) Cell culturing was performed for four hours in a CO2-incubator, whereby the luciferase gene sufficiently expressed in the cells. Luciferase activity was measured by means of a Dual-Glo™ luciferase assay system (promega) according to an instruction manual thereof. The luminescence value derived from firefly luciferase induced by odorant stimulation was divided by the luminescence value of cells which were not stimulated with odorants. The thus-obtained—called “fold increase”—was employed as an index for response intensity.
(§4) The response inhibition rate of a test substance was calculated as follows. Firstly, luminescence value derived from firefly luciferase induced by stimulation with skatole (X), and luminescence value in cells which expressed the same receptor but were not stimulated with skatole (Y) were determined. By subtracting Y from X, the receptor activity by stimulation with skatole alone (X−Y) was determined. Similarly, the luminescence value induced by stimulation with a mixture of skatole and a test substance (Z) was determined. Through subtracting Y (the luminescence value in cells which expressed the same receptor but were not stimulated with skatole) from Z, the receptor activity (Z−Y) by stimulation with a mixture of skatole and the test substance was obtained. From the thus-obtained receptor activity by stimulation with skatole alone (X−Y) and the receptor activity in the presence of a test material (Z−Y), the response inhibition rate of the test substance was calculated by the following equation: Inhibition rate (%)={1−(Z−Y)/(X−Y)}×100.
(§5) In each case, multiple independent experiments were performed in duplicate, and the average of each experiment was used.

[2] = target: T2, OR8H1 (Homo sapiens, UniProt Q8NGG4); test: Luciferase reporter assay: suppression of the skatole response of OR8H1 expressed in HEK293 cells; settings: for inhibition at 100 µM: read-out: Inhibition rate 8H1
T2 construct: expressed in transfected cells; host or cells: HEK293
T2 sequence (Q8NGG4 1-311): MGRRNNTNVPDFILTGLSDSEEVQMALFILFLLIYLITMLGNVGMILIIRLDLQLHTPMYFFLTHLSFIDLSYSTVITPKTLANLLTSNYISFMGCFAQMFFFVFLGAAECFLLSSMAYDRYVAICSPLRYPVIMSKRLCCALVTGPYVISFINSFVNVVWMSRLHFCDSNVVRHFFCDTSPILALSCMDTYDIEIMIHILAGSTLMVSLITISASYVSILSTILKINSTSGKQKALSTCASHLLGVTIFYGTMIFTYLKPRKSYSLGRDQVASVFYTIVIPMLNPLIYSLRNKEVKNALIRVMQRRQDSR
Experimental: as §1, §2, §3, §4, §5

[3] = target: T3, OR5P3 (Homo sapiens, UniProt Q8WZ94); test: Luciferase reporter assay: suppression of the skatole response of OR5P3 expressed in HEK293 cells; settings: test substance 100 μM mixed with 300 μM skatole, HEK293 cells expressing OR5P3
T3 construct: expressed in transfected cells; host or cells: HEK293
T3 sequence (Q8WZ94 1-311): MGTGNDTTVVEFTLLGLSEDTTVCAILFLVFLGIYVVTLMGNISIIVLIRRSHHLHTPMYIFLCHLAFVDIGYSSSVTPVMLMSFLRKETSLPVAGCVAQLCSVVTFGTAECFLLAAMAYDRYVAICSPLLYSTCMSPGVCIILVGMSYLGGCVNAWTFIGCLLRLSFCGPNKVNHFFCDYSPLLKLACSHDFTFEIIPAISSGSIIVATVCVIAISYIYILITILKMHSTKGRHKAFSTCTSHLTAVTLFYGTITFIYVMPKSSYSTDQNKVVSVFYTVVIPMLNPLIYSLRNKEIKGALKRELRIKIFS
Experimental: as §1, §2, §3, §4, §5

[4] = target: T4, OR2W1 (Homo sapiens, UniProt Q9Y3N9); test: Luciferase reporter assay: suppression of the skatole response of OR2W1 expressed in HEK293 cells; settings: for inhibition at 100 µM: read-out: Inhibition rate 2W1
T4 construct: expressed in transfected cells; host or cells: HEK293
T4 sequence (Q9Y3N9 1-320): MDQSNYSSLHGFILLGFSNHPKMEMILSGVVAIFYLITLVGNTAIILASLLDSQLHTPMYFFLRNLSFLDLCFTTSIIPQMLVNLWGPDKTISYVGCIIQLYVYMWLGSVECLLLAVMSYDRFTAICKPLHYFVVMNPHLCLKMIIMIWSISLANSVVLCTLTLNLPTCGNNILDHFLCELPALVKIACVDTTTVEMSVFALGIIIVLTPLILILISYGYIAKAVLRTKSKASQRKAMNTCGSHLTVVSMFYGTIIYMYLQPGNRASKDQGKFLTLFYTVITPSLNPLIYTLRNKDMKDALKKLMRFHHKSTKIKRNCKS
Experimental: as §1, §2, §3, §4, §5

[5] = 4 h, test substance 100 μM mixed with 300 μM skatole, HEK293 cells expressing OR5K1
[6] = 4 h, test substance 100 μM mixed with 300 μM skatole, HEK293 cells expressing OR8H1
[7] = 4 h, test substance 100 μM mixed with 300 μM skatole, HEK293 cells expressing OR2W1

inhibition at 100 µM [1, 5] [%] | inhibition at 100 µM [2, 6] [%] | Inhibition rate 5P3 [3] | inhibition at 100 µM [4, 7] [%] | Compound | inhibition at 100 µM ([1]; HEK293, 4 h) [%] | inhibition at 100 µM ([2]; HEK293, 4 h) [%] | inhibition at 100 µM ([4]; HEK293, 4 h) [%] | Inhibition rate 5K1 ([1]; test substance 100 μM mixed with 300 μM skatole, HEK293 cells expressing OR5K1) | Inhibition rate 8H1 ([2]; test substance 100 μM mixed with 300 μM skatole, HEK293 cells expressing OR8H1) | Inhibition rate 2W1 ([4]; test substance 100 μM mixed with 300 μM skatole, HEK293 cells expressing OR2W1)
50 to 80 | 20 to 50 | C (C >20%) | 20 to 50 | COC(C)(C)CCCC(C)CC=O (stereo not drawn) [methoxycitronellal, 7-Methoxy-3,7-dimethyl-octanal] |  |  |  |  |  | 
< 20 | < 20 | A (A >80%) | > 80 | C=CC(C)(O)CCC=C(C)CCC=C(C)C (stereo not drawn) [nerolidol, 3,7,11-Trimethyl-1,6,10-dodecatrien-3-ol] |  |  |  |  |  | 
> 80 | > 80 | A (A >80%) | < 20 | CC(C)(C)C1CCC(O)CC1 (stereo not drawn) [p-tert-butlcyclohexanol, 4-(1,1-Dimethylethyl)-cyclohexanol] |  |  |  |  |  | 
50 to 80 | > 80 | B (B >50%) | 50 to 80 | O=C1CCCCCCCCCCCCCCO1 [pentalide, Oxacyclohexadecan-2-one] |  |  |  |  |  | 
< 20 | < 20 | A (A >80%) | < 20 | CC(CCO)CCc1ccccc1 (stereo not drawn) [phenylhexanol, 3-Methyl-5-phenyl-1-pentanol] |  |  |  |  |  | 
50 to 80 | > 80 | B (B >50%) | 20 to 50 | CC(C)CCCC(C)CCO (stereo not drawn) [tetrahydrogenol, 3,7-Dimethyl-1-octanol] |  |  |  |  |  | 
> 80 | 20 to 50 | A (A >80%) | 20 to 50 | Cc1ccc(C(C)C)c(O)c1 [thymol, 5-Methyl-2-(1-methylethyl)-phenol] |  |  |  |  |  | 
50 to 80 | 50 to 80 | C (C >20%) | 50 to 80 | C=C1CCCC(C)(C)C1C=CC(=O)CC (stereo not drawn) [γ-methylionone, 1-(2,2-Dimethyl-6-methylencyclohexyl)-1-penten-3-one] |  |  |  |  |  | 
20 to 50 | 20 to 50 | C (C >20%) | 20 to 50 | CC=CC(=O)C1C(C)C=CCC1(C)C (stereo not drawn) [δ-damascones, 1-(2,6,6-Trimethyl-3-cyclohexenyl)-2-buten-1-one] |  |  |  |  |  | 

Further lines, the compound ahead of its results:

Compound | inhibition at 100 µM [1, 5] [%] | inhibition at 100 µM [2, 6] [%] | Inhibition rate 5P3 [3] | inhibition at 100 µM [4, 7] [%] | inhibition at 100 µM ([1]; HEK293, 4 h) [%] | inhibition at 100 µM ([2]; HEK293, 4 h) [%] | inhibition at 100 µM ([4]; HEK293, 4 h) [%] | Inhibition rate 5K1 ([1]; test substance 100 μM mixed with 300 μM skatole, HEK293 cells expressing OR5K1) | Inhibition rate 8H1 ([2]; test substance 100 μM mixed with 300 μM skatole, HEK293 cells expressing OR8H1) | Inhibition rate 2W1 ([4]; test substance 100 μM mixed with 300 μM skatole, HEK293 cells expressing OR2W1)
CC(C=O)C1CCCCC1 (stereo not drawn) [Pollenal II, 2-Cyclohexylpropanal] | 20 to 50 | < 20 | C (C >20%) | 20 to 50 |  |  |  |  |  | 
CC(CO)CC(C)c1ccccc1 (stereo not drawn) [Pumple fleur, 2-Methyl-4-phenylpentanol] | 20 to 50 | 50 to 80 | A (A >80%) | < 20 |  |  |  |  |  | 
CC(=O)C1=C(C)C2CC3(C1)C(C)CCC3C2(C)C (stereo not drawn) [acetylcedrene, 1-(2,3,4,7,8,8a-Hexahydro-3,6,8,8-tetramethyl-1H-3a,7-methanoazulen-5-yl)-ethanone] | > 80 | > 80 | A (A >80%) | > 80 |  |  |  |  |  | 
CC/C=C\CC1=C(C)CCC1=O [cis-jasmone, (Z)-2-(2-Pentenyl)-3-methyl-2-cyclopenten-1-one] | < 20 | 20 to 50 | C (C >20%) | 50 to 80 |  |  |  |  |  | 
CC(C)=CCCC(C)CC=O (stereo not drawn) [citronellal, 3,7-Dimethyl-6-octenal] | 20 to 50 | < 20 | C (C >20%) | 20 to 50 |  |  |  |  |  | 
O=C1CCCCCCC/C=C\CCCCCCC1 [civetone, (Z)-Cycloheptadeca-9-en-1-one] |  |  | B (B >50%) |  | 50 to 80 | 50 to 80 | > 80 |  |  | 
CC12CCC(C1)C(C)(C)C2O (stereo not drawn) [fenchyl alcohol, 1,3,3-trimethyl-bicyclo[2.2.1]heptan-2-ol] | < 20 | 20 to 50 | C (C >20%) | 20 to 50 |  |  |  |  |  | 
CC(C)=CCC/C(C)=C/CO [geraniol, 2-trans-3,7-Dimethyl-2,6-octadien-1-ol] | 20 to 50 | 50 to 80 | B (B >50%) | < 20 |  |  |  |  |  | 
O=C1CCCCCCC=CCCCCCCC1 [globanone, 8-Cyclohexadecen-1-one] | < 20 | < 20 | C (C >20%) | > 80 |  |  |  |  |  | 
CC(CC=O)CCCC(C)(C)O (stereo not drawn) [hydroxycitronellal, 7-Hydroxy-3,7-dimethyl-octanal] | < 20 | 20 to 50 | B (B >50%) | 20 to 50 |  |  |  |  |  | 
CC(C=O)Cc1ccc(C(C)(C)C)cc1 (stereo not drawn) [lilial, p-tert-Butyl-α-methyl hydrocinnamic aldehyde] |  |  | C (C >20%) |  |  |  |  | C (C >20%) | C (C >20%) | C (C >20%)
CCCCCCCC1CCC(=O)O1 (stereo not drawn) [γ-undecalactone, 5-Heptyl dihydro-2(3H)-furanone] | 50 to 80 | 50 to 80 | B (B >50%) | 50 to 80 |  |  |  |  |  | 
